# Test results from patent US11904052B2, “Methods for ameliorating infusion reactions” (ARBUTUS BIOPHARMA CORPORATION, priority 2016, dated 2024).
# Entries after “also recorded” stand apart in the source; their conditions may differ.
# How the values were obtained:
# [1] = system: thromboxane B2; experiment: Plasma thromboxane B2 after LNP2 infusion in the conscious minipig; assay type: in vivo, Gottingen minipigs; settings: iv bolus 10 minutes prior to LNP2 infusion; ketorolac 1 mg/kg, dexamethasone 0.3 mg/kg
# Description: (§1) Four (4) treatment naïve female Gottingen minipigs (Marshall Farms, N.Y.) were surgically implanted with a D70-PCT PhysioTel implantable radiotelemetry transmitter (Data Sciences International, St. Paul, Minn.) to allow for the measurement of physical activity, body temperature, ECG, heart rate, and arterial blood pressure. The pigs were allowed to recover from surgery for at least 7 days prior to use in the study.
# (§2) Following surgical recovery, the same four pigs (15-20 kg) received a 60-minute intravenous infusion of vehicle (0.9% saline), LNP2, LNP2+ketorolac, or LNP2+dexamethasone as outlined in the Table 1. Each treatment cohort was separated by a 7-day washout period.
# (§3) Just prior to each infusion and at approximately 1, 3, 6 and 24 hours after the start of each infusion, a mixed venous blood sample was taken, processed to plasma, stored frozen, and used for subsequent analysis of thromboxane B2 (11-dehydrothromboxane B2). Heart rate and arterial blood pressure was continuously recorded from 30 minutes prior to each infusion to 24 hours after the start of each infusion.
# [2] = system: conscious minipig; experiment: Mean arterial blood pressure by radiotelemetry after LNP2 infusion in the conscious minipig; assay type: in vivo, Gottingen minipigs; settings: iv bolus 10 minutes prior to LNP2 infusion; ketorolac 1 mg/kg, dexamethasone 0.3 mg/kg
# Description: as §1, §2, §3
smiles,measurement,setting,value
O=C(c1ccccc1)c1ccc2n1CCC2C(=O)O (stereo not drawn) [ketorolac],effect on the LNP2-induced increase in thromboxane B2,[1],mitigated completely
same,effect on the acute infusion reaction to LNP2 (increase in blood pressure),[2],completely prevented
same,effect on the delayed hypotension after LNP2 infusion,[2],prevented; also recorded: effectively mitigated
